What was measured:
[1] = biological target: T1, human MOR (Homo sapiens, UniProt P35372); assay: [35S]GTPγS binding assay using CHO-hMOR cell membranes; type: biochemical; conditions: for Emax: read-out: functional activity [35S]GTPγS MOR % stim; for EC50: read-out: functional activity [35S]GTPγS MOR EC50, mean ± SEM
[2] = test system: acute thermal nociception; assay: Hot-plate assay in mice after sc administration; type: in vivo; conditions: Mus musculus, 0.5 h, read-out: antinociceptive activity hot-plate assay ED50 (95% CI)
[3] = biological target: T1, human MOR; assay: Competition binding assay, [3H]DAMGO, CHO-hMOR cell membranes; conditions: for Ki: read-out: opioid receptor binding, Ki, affinity MOR, CHO-hMOR membranes, [3H]DAMGO, mean ± SEM, at least three experiments
[4] = biological target: human DOR (Homo sapiens, UniProt P41143); assay: Competition binding assay, [3H]diprenorphine, CHO-hDOR cell membranes; conditions: for selectivity DOR/MOR: ratio of Ki values; for Ki: read-out: opioid receptor binding, Ki, affinity DOR, CHO-hDOR membranes, [3H]diprenorphine, mean ± SEM, at least three experiments
[5] = biological target: human KOR (Homo sapiens, UniProt P41145); assay: Competition binding assay, [3H]HS665, CHO-hKOR cell membranes; conditions: for selectivity KOR/MOR: ratio of Ki values; for Ki: read-out: opioid receptor binding, Ki, affinity KOR, CHO-hKOR membranes, [3H]HS665, mean ± SEM, at least three experiments
[6] = test system: antinociception; conditions: cited from earlier work
[7] = test system: gastrointestinal motility; conditions: ref 6b; cited from earlier work
[8] = test system: MOR; conditions: 14-methoxy group introduced into 1; ref 6a, 6b; cited from earlier work

With `C[C@@H](NC(=O)[C@@H](N)Cc1ccc(O)cc1)C(=O)NCC(=O)N(C)[C@@H](Cc1ccccc1)C(=O)NCCO` [DAMGO, [D-Ala^2,Me-Phe^4,Gly-ol^5]enkephalin, reference compound] the “% stim of the reference full agonist DAMGO in [35S]GTPγS binding” value ([1]; CHO-hMOR membranes, DAMGO's own stimulation, the reference for efficacies) was 221 ± 13%.

With `CN1CC[C@]23c4c5ccc(O)c4O[C@H]2C(=O)CC[C@@]3(O)[C@H]1C5` [Compound 1, oxymorphone, reference compound] the ED50 [2] was 0.382 mg/kg.

With `CO[C@@]12CCC[C@@H]3Oc4c(O)ccc5c4[C@@]31CCN(C)[C@@H]2C5` [Compound 2a, 4,5α-Epoxy-3-hydroxy-14β-methoxy-17-methylmorphinan] the Ki [3] was 0.24 ± 0.08 nM, the ED50 [2] was 0.0173 mg/kg and the Emax [1] was 105 ± 6%. For the same compound, the EC50 ([1]; CHO-hMOR membranes) was 1.37 ± 0.26 nM, the “selectivity DOR/MOR” value [4] was 36 and the Ki [4] was 8.64 ± 2.25 nM. For the same compound, the “selectivity KOR/MOR” value [5] was 17 and the Ki [5] was 3.99 ± 0.63 nM.

In the case of `CN1CC[C@]23c4c5ccc(O)c4O[C@H]2CCC[C@@]3(OCc2ccccc2)[C@H]1C5` [Compound 3a, 14β-Benzyloxy-4,5α-epoxy-3-hydroxy-17-methylmorphinan], the “increase in MOR affinity, 3a vs 3” value ([3]; human MOR, Ki ratio) is reported as “up to 9 fold”, the Ki [3] is reported as 0.048 ± 0.011 nM and the ED50 [2] is reported as 0.00241 mg/kg. The “increase in the EC50 of 3a compared to 3” value ([1]; [35S]GTPγS, human MOR) was roughly 2.5 fold, the Emax [1] was 103 ± 8% and the EC50 ([1]; CHO-hMOR membranes) was 0.13 ± 0.03 nM. For the same compound, the “higher MOR/DOR selectivity ratio than 3” value ([4]; 3a vs 3) was “about 9 fold”, the Ki [4] was 0.89 ± 0.29 nM and the “higher MOR/KOR selectivity ratio than 3” value ([5]; 3a vs 3) was roughly 6 fold. The “selectivity KOR/MOR” value [5] was 18 and the Ki [5] was 0.85 ± 0.05 nM.

For `CN1CC[C@]23c4c5ccc(O)c4O[C@H]2C(=O)CC[C@@]3(OCc2ccccc2)[C@H]1C5` [Compound 3, 14-O-benzyloxymorphone], the Ki [3] is given as 0.45 ± 0.1 nM, the “increased antinociceptive potency compared to 2” value ([6]; ref 6b) is given as 5 fold and the ED50 [2] is given as 0.00238 mg/kg. The Emax [1] was 101 ± 5%, the EC50 ([1]; CHO-hMOR membranes) was 0.32 ± 0.16 nM and the “selectivity DOR/MOR” value [4] was 2.3. For the same compound, the Ki [4] was 1.05 ± 0.42 nM, the “inhibition of gastrointestinal motility” value [7] was “negligible” and the “less constipating than 2” value [7] was 7 fold. The “less constipating than morphine” value [7] was 2.5 fold, the “selectivity KOR/MOR” value [5] was 2.8 and the Ki [5] was 1.27 ± 0.24 nM.

`CO[C@@]12CCC(=O)[C@]3(C)Oc4c(O)ccc5c4[C@@]31CCN(C)[C@@H]2C5` [Compound 4, 14-methoxymetopon] gave an ED50 [2] of 0.0271 mg/kg, an Emax [1] of 99.2 ± 2.8% and an EC50 ([1]; CHO-hMOR membranes) of 3.28 ± 0.81 nM. The “selectivity DOR/MOR” value [4] was 79, the Ki [4] was 19.8 ± 1.3 nM and the “selectivity KOR/MOR” value [5] was 60. The Ki [5] was 15.1 ± 0.9 nM.

With `CO[C@@]12CCC[C@]3(C)Oc4c(O)ccc5c4[C@@]31CCN(C)[C@@H]2C5` [Compound 4a, 5β,17-Dimethyl-4,5α-epoxy-3-hydroxy-14β-methoxymorphinan] the Ki [3] was 0.34 ± 0.08 nM, the ED50 [2] was 0.0251 mg/kg and the EC50 ([1]; CHO-hMOR membranes) was 2.95 ± 0.54 nM. For the same compound, the Ki [4] was 12.9 ± 1.6 nM and the Ki [5] was 7.92 ± 4.47 nM.

In the case of `CN1CC[C@]23c4c5ccc(O)c4O[C@H]2CCC[C@@]3(O)[C@H]1C5` [Compound 1a, 3,14-Dihydroxy-4,5α-epoxy-17-methylmorphinan], the Ki [3] is reported as 1.65 ± 0.5 nM, the ED50 [2] is reported as 0.383 mg/kg and the Emax [1] is reported as 104 ± 7%. For the same compound, the EC50 ([1]; CHO-hMOR membranes) was 8.99 ± 2.19 nM, the “decrease in affinity to the DOR, 1a vs 1” value ([4]; human DOR, Ki ratio) was roughly 3 fold and the “selectivity DOR/MOR” value [4] was 122. The Ki [4] was 201 ± 80 nM, the “selectivity KOR/MOR” value [5] was 13 and the Ki [5] was 21.6 ± 3.9 nM.

In the case of `CO[C@@]12CCC(=O)[C@@H]3Oc4c(O)ccc5c4[C@@]31CCN(C)[C@@H]2C5` [Compound 2, 14-O-methyloxymorphone], the Ki [3] is given as 0.32 ± 0.08 nM, the “increase in antinociceptive potency vs oxymorphone (1)” value ([6]; ref 6a, 6b) is given as 40 fold and the ED50 [2] is given as 0.0142 mg/kg. For the same compound, the Emax [1] was 96.4 ± 5%, the EC50 ([1]; CHO-hMOR membranes) was 1.45 ± 0.32 nM and the “selectivity DOR/MOR” value [4] was 28. The Ki [4] was 8.8 ± 0.35 nM, the “increase in MOR affinity vs oxymorphone (1)” value [8] was roughly 9 fold and the “selectivity KOR/MOR” value [5] was 32. It also gave a Ki [5] of 10.1 ± 3.1 nM.
